Like-named read-outs stand apart in the source and are kept apart here.

Data set [1] deals with human abdominal skin explants. The experiment in a line: Cutaneous distribution and mass balance of radioactivity in human skin explants. Conditions: human skin; for Mass balance (% of applied dose at end of incubation) / % Radioactivity in culture media after 24 h: 24 h; for Medium radioactivity / Skin radioactivity / Skin surface radioactivity: end of incubation (24 h), mean ± SD. As for the experimental part:
(§1) Human abdominal skin was obtained (with consent for research from a commercial supplier [L’Union Clinic, Rangueil hospital and Icelltis, Toulouse, France] with certified ethical procedures) from six male and 34 female healthy donors, 41 ± 11 years of age, undergoing cosmetic surgery. Abdominal skin was kept at 4°C during transports and placed in culture within 3 hours of surgery. Pig ear skin was a waste product of the meat industry (without hot steam treatment) from domestic pigs (female Pietrain breed, 6 months old, 80‐100 kg) obtained from a local slaughterhouse (Montauban, France). Ears were taken from the animals within 5 minutes of slaughter and were kept at 4°C during transport to the laboratory, which lasted a maximum of 2 hours. Pig skin samples were dried and then gently shaved.
(§2) The experiment and the preparation of the culture medium were performed under sterile conditions. Human and pig skin was cut with a dermatome to a thickness of 450 ± 50 μm. Skin punches were seeded dermal side down in polycarbonate Transwell® inserts from Corning Life Sciences (Avon, France; 4.16 cm^2 application area with an 8 μm pore size filter). […] The inserts were placed in a six‐well plate containing 1.5 mL culture medium and the skin explants incubated in a standard incubator at 37°C, under an atmosphere of 5% CO2 and 50 ± 10% relative humidity. The culture medium was Dulbecco's modified Eagle medium without phenol red supplemented with 8 mM L‐glutamine, 2 μg/mL streptomycin/penicillin, 25 ng/mL fungizone and 50 ng/mL gentamycin. Skin explants were incubated for 1 hour before application of the formulation.
(§3) The dosing volume was 10 μL/cm^2. For pig skin metabolism studies, which were carried out before the human skin experiments to ensure the analytics were optimal, 2.4 nmol/cm^2 of each chemical (only the ^14C‐labeled form) was applied on the skin and incubated for 24 hours for the measurement of metabolites in the medium. These tissues were further incubated for a total of 48 hours, with a replacement of the culture medium after 24 hours. This longer incubation time and the standard doses of 2.4 nmol/cm^2 were used to maximize the likelihood of the skin forming metabolites to develop analytical methods. The metabolites profiles in pig and human skin were compared in the medium sample at 24 hours of incubation. The metabolite profiles for the 48‐hour timepoint are not reported here since humans skin metabolism was measured at 24 hours only; however, for completeness, the distribution of radioactivity at the end of both pig (48 hours) and human (24 hours) skin incubations is reported. […] The doses were obtained by mixing radiolabeled and cold chemical. One replicate disc per donor and per dose was used. All chemicals were tested on four donors of pig and human skin, except for 2‐AAF and 4‐amino‐3‐nitrophenol (4‐A‐3‐NP), for which three donors were used. The medium was removed after 24 hours of incubation and stored at −20°C for analysis.
(§4) At the end of the experiment, the trans‐wells were dismantled and washed with appropriate solvent for each chemical. […] The cotton swabs were placed in 5 mL of appropriate solvent in a scintillation counting flask and placed in a sonicator bath for 20 minutes. Aliquots of 1 mL were counted by liquid scintillation, after addition of 15 mL of scintillation liquid. Tissue culture inserts were washed with 10 mL of appropriate solvent. One aliquot of 1 mL was counted by liquid scintillation, after addition of 15 mL of scintillation liquid. After media removal, wells were washed twice with 1 mL of the appropriate solvent. Washing solutions were counted by liquid scintillation, after addition of 15 mL of scintillation liquid.
(§5) Pig skin explants were digested using 3 mL Soluable (60°C for 24 hours) and counted by liquid scintillation. Skin extraction process was adapted according to the physicochemical properties of each chemical and its potential metabolites.

For data set [2] the following is noted: ref Chemspider (www.chemspider.com), cited from earlier work.
Data set [3] has as its system pig ear skin explants. Put plainly: Cutaneous distribution and mass balance of radioactivity in pig skin explants. Particulars: pig skin; for % Radioactivity in culture media after 24 h / Mass balance (% of applied dose at end of incubation): 2.4 nmol/cm^2; for Mass balance (% of applied dose at end of incubation): 48 h; for Medium radioactivity / Skin radioactivity / Skin surface radioactivity: end of incubation (48 h), mean ± SD. As for the experimental part:
as §1, §2, §3, §4, §5

For data set [4], the system named is pig ear skin explants. Conditions: pig skin; for Parent compound in the medium after 24 h: mean ± SEM; for Parent compound in the medium after 24 h / Number of metabolites detected in the culture medium: 24 h. As for the experimental part: as §1, §2, §3
(§6) After centrifugation, a 100 μL aliquot of the extract was counted by liquid scintillation. The pellet was dissolved in 3 mL Soluable (60°C, 24 hours) and then counted by liquid scintillation.
(§7) Analysis of the chemicals and their metabolites in medium after 24 hours of incubation with pig and human skin was measured by radio‐high‐performance liquid chromatography (HPLC) using an HPLC 1100 Series, Agilent and a Flow Scintillation Analyzer, Radiomatic 610 TR, Perkin Elmer (Villebon‐sur‐Yvette, France). […] To confirm that metabolites were the same in pig and human skin, medium samples were co‐injected on the new column. The metabolites were identified by LC‐electrospray ionization‐HRMS (HPLC‐ESI‐HRMS) with a RSLC3000 HPLC system coupled to a LTQ‐Orbitrap XL mass spectrometer (Thermo Scientific). The HPLC analytical conditions for identification and quantification of the metabolites for each chemical are summarized in Supporting information Table S1.

In data set [5] the test system is human abdominal skin explants. As for the experimental part: as §1, §2, §3, §6, §7

Consider `Oc1cccc(O)c1` [Resorcinol], for which, in data set [1], the “Mass balance (% of applied dose at end of incubation)” value is recorded as 94.2 ± 3.5 % of applied dose and the Medium radioactivity was 54.4 ± 1.5 % of the applied dose. Besides, in data set [2], the LogP was 0.80. Also, in data set [3], the “% Radioactivity in culture media after 24 h” value (shortened to “% Radioactivity”) was 58.6 ± 7.6%, the “Mass balance (% of applied dose at end of incubation)” value is recorded as 92.7 ± 5.92 % of applied dose and the Medium radioactivity is recorded as 71.0 ± 7.1 % of the applied dose. For the same molecule, in data set [4], the “Parent compound in the medium after 24 h” value was 1.8 ± 0.8 % Applied dose. In addition, in data set [5] (both, human, 24 h), the “Glucuronide conjugate as share of the total metabolites observed” value was > 78 % of the total metabolites, the “Parent compound in the medium after 24 h” value is reported as 4.8 ± 0.7 % Applied dose, the “Sulfate conjugate as share of the total metabolites” value is listed as 19 % of the total metabolites and the “Total metabolites in the medium after 24 h” value was 41.9 ± 0.6 % Applied dose.
For the molecule `CC(=O)Nc1ccc2c(c1)Cc1ccccc1-2` [2‐AAF, 2‐acetyl aminofluorene], in data set [1], the “% Radioactivity” value came to 48.3 ± 4.2%, the “Mass balance (% of applied dose at end of incubation)” value was 91.6 ± 4.5 % of applied dose, the Medium radioactivity was 48.3 ± 4.2 % of the applied dose and the Skin radioactivity was 40.5 ± 5.5 % of the applied dose. The Skin surface radioactivity in data set [1] is 2.8 ± 0.3 % of the applied dose. Further, the “Maximum solubility in ethanol” value in data set [2] (in ethanol) is 9.6 mg/mL. Further, in data set [2], the LogP is reported as 3.10 and the Maximum water solubility is on record as 0.004 mg/mL. Further, in data set [3], the “% Radioactivity” value was found to be 52.8 ± 2.3%, the “Mass balance (% of applied dose at end of incubation)” value was 87.8 ± 1.1 % of applied dose, the Medium radioactivity is given as 73.9 ± 1.1 % of the applied dose and the Skin radioactivity was 12.6 ± 1.5 % of the applied dose. The Skin surface radioactivity in data set [3] was 1.4 ± 0.4 % of the applied dose.
`OCC=Cc1ccccc1` [Cinnamyl alcohol]: in data set [1], the “% Radioactivity” value is 83.5 ± 4.8 %, the “Mass balance (% of applied dose at end of incubation)” value was 99.9 ± 5.8 % of applied dose, the Medium radioactivity is 83.5 ± 4.8 % of the applied dose and the Skin radioactivity is recorded as 16.2 ± 3.2 % of the applied dose. Moreover, the Skin surface radioactivity in data set [1] was 0.2 ± 0.1 % of the applied dose. For the same molecule, in data set [2], the LogP is recorded as 1.95 and the Maximum water solubility is listed as 4.0 mg/mL. Also, in data set [3], the “% Radioactivity” value was found to be 63.2 ± 1.9%, the “Mass balance (% of applied dose at end of incubation)” value is recorded as 96.8 ± 1.9 % of applied dose, the Medium radioactivity is 87.1 ± 2.7 % of the applied dose and the Skin radioactivity is 8.5 ± 0.8 % of the applied dose. In data set [3], the Skin surface radioactivity is 1.2 ± 1.1 % of the applied dose. Besides, in data set [4], the “Parent compound in the medium after 24 h” value came to 0.0 % Applied dose. For the same molecule, the “Number of metabolites detected in the culture medium” value (from here on “Number of metabolites detected”) in data set [5] (human skin, 24 h) is “eight”. In data set [5] (human skin, 24 h, mean ± SEM), the “Parent compound in the medium after 24 h” value stood at 0.2 ± 0.03 % Applied dose.
As to `COc1cc(C=O)ccc1O` [Vanillin], in data set [1], the “% Radioactivity” value worked out at 60.0 ± 7.8%, the “Mass balance (% of applied dose at end of incubation)” value is given as 104.4 ± 6.0 % of applied dose and the Medium radioactivity was 60.0 ± 7.8 % of the applied dose. Moreover, in data set [2], the Maximum water solubility is given as 8.5 mg/mL. In data set [3], the “% Radioactivity” value is listed as 58.6 ± 5.2%, the “Mass balance (% of applied dose at end of incubation)” value is 90.7 ± 1.7 % of applied dose and the Medium radioactivity is recorded as 77.4 ± 5.1 % of the applied dose. In data set [4], the “Number of metabolites detected” value was “Six” and the “Parent compound in the medium after 24 h” value came out at 0.1 ± 0.04 % Applied dose. Also, in data set [5] (both, human, 24 h), the “Parent compound in the medium after 24 h” value is 0.3 ± 0.09 % Applied dose and the “Total metabolites in the medium after 24 h” value turned out to be 51.1 ± 2.3 % Applied dose.
On to `Cn1c(N)nc2c3cccnc3ccc21` [IQ, 2‐amino‐3‐methylimidazo[4,5‐f]quinoline], for which, in data set [1], the “% Radioactivity” value came to 10.5 ± 13.4%, the “Mass balance (% of applied dose at end of incubation)” value is given as 94.5 ± 10.6 % of applied dose, the Medium radioactivity is reported as 10.5 ± 13.4 % of the applied dose and the Skin radioactivity is 66.0 ± 12.3 % of the applied dose. Further, the Skin surface radioactivity in data set [1] is 17.9 ± 3.7 % of the applied dose. Besides, in data set [2], the LogP is recorded as 1.47 and the Maximum water solubility is given as 0.53 mg/mL. Besides, in data set [3], the “% Radioactivity” value stood at 30.1 ± 2.3%, the “Mass balance (% of applied dose at end of incubation)” value is 96.3 ± 6.6 % of applied dose, the Medium radioactivity is reported as 54.8 ± 8.3 % of the applied dose and the Skin radioactivity is listed as 33.6 ± 5.1 % of the applied dose. Besides, the Skin surface radioactivity in data set [3] is given as 7.8 ± 3.9 % of the applied dose. In addition, the “Metabolites detected in the skin or culture media” value in data set [4] is reported as “no metabolites were detected”. Further, the “Metabolites detected in the skin or culture media” value in data set [5] (human skin) was “no metabolites were detected”.
`CCOc1ccc2ccc(=O)oc2c1` [7‐EC, 7‐ethoxycoumarin]: in data set [1], the “Mass balance (% of applied dose at end of incubation)” value was 91.9 ± 3.8 % of applied dose, the Medium radioactivity is recorded as 66.7 ± 3.5 % of the applied dose, the Skin radioactivity is recorded as 24.1 ± 6.2 % of the applied dose and the Skin surface radioactivity is listed as 1.4 ± 0.2 % of the applied dose. Further, in data set [2], the LogP is 2.30 and the Maximum water solubility is given as 0.78 mg/mL. In data set [3], the “% Radioactivity” value is recorded as 62.5 ± 2.7%, the “Mass balance (% of applied dose at end of incubation)” value is given as 100.0 ± 3.8 % of applied dose, the Medium radioactivity is reported as 89.7 ± 3.4 % of the applied dose and the Skin radioactivity was 9.3 ± 0.4 % of the applied dose. Moreover, the Skin surface radioactivity in data set [3] is on record as 1.0 ± 0.1 % of the applied dose. For the same molecule, in data set [4], the “Number of metabolites detected” value is “three” and the “Parent compound in the medium after 24 h” value was 60.8 ± 0.6 % Applied dose. Besides, the “Number of metabolites detected” value in data set [5] (human skin, 24 h) is reported as “three”. Besides, the “Parent compound in the medium after 24 h” value in data set [5] (human skin, 24 h, mean ± SEM) is on record as 57.7 ± 3.1 % Applied dose.

(Values after publication PMC6587507, “Comparison of the metabolism of 10 chemicals in human and pig skin explants” (Journal of Applied Toxicology, 2018).)
